Measured values taken from EP0343801A2, “N-(5,6,7,8-tetrahydropyrido(2,3-D)pyrimidin-6-yl-alkanoyl)-glutamic acid derivatives” (THE TRUSTEES OF PRINCETON UNIVERSITY, priority 1988, dated 1989).
Values after ≈ are worked out from the molar mass of the structure shown.

Experiments:
CCRF-CEM = assay: IC50 in whole cell human leukemia cell lines, CCRF-CEM; format: cell-based; conditions: read-out: IC₅₀
Description: The IC₅₀ in whole cell human leukemia cell lines, CCRF-CEM, of N-[5-(2-{2-amino-4-hydroxy-5,6,7,8-tetrahydropyrido[2,3-d]pyrimidin-6-yl}ethyl)thien-2-ylcarbonyl]-L-glutamic acid is 0.0015 ug/mL. The IC₅₀ of N-[5-(2-{2-amino-4-hydroxy-5,6,7,8-tetrahydropyrido[2,3-d]pyrimidin-6-yl}ethyl)fur-2-ylcarbonyl]-L-glutamic acid is 0.010 ug/mL. The IC₅₀ of N-[4-(2-{2-amino-4-hydroxy-5,6,7,8-tetrahydropyrido[2,3-d]pyrimidin-6-yl}-ethyl)thien-2-ylcarbonyl]-L-glutamic acid is 0.0756 ug/mL.
The IC₅₀ in whole cell human leukemia cell lines, CCRF-CEM, of other compounds of this invention are as follows: […]

[1] = system: 6C3HED lymphosarcoma tumors; assay: In vivo evaluation against 6C3HED lymphosarcoma tumors in mice; conditions: IP, daily administration
LX-1 Lung Xenography = assay: In vivo evaluation against LX-1 Lung Xenography in mice; conditions: IP, daily administration, days 1, 4, 7, 10
[2] = system: CA-755 Adenocarcinoma tumors; assay: In vivo evaluation against CA-755 Adenocarcinoma tumors in mice; conditions: IP, daily administration, days 1, 4, 7, 10
[3] = system: C3H Mammary Adenocarcinoma tumors; assay: In vivo evaluation against C3H Mammary Adenocarcinoma tumors in mice; conditions: IP, daily administration, days 1, 4, 7, 10
CX-1 Colon Xenography = assay: In vivo evaluation against CX-1 Colon Xenography in mice; conditions: IP, daily administration, days 1, 4, 7, 10
B-16 Melanoma tumors = assay: In vivo evaluation against B-16 Melanoma tumors in mice; conditions: IP, daily administration, days 1, 7
MX-1 Mammary Xenography = assay: In vivo evaluation against MX-1 Mammary Xenography in mice; conditions: IP, daily administration, days 1, 4, 7, 10

Nc1nc(O)c2c(n1)NCC(CCCCC(=O)N[C@@H](CCC(=O)O)C(=O)O)C2 (stereo partly drawn) [-(CH₂)₂-, N-[5-(2-amino-4-hydroxy-5,6,7,8-tetrahydropyrido[2,3-d]pyrimidin-6-yl)pentanoyl]-L-glutamic acid]
IC50 (CCRF-CEM): 0.023 µg/mL (≈ 0.0582 µM)

Nc1nc(O)c2c(n1)NCC(CCCCCC(=O)N[C@@H](CCC(=O)O)C(=O)O)C2 (stereo partly drawn) [-(CH₂)₃-, N-[6-(2-Amino-4-hydroxy-5,6,7,8-tetrahydropyrido[2,3-d]pyrimidin-6-yl)hexanoyl]-L-glutamic Acid]
IC50 (CCRF-CEM): 0.0075 µg/mL (≈ 0.0183 µM)

Nc1nc(O)c2c(n1)NCC(CCCCCCC(=O)N[C@@H](CCC(=O)O)C(=O)O)C2 (stereo partly drawn) [-(CH₂)₄- CH₂-CH₂, N-[7-(2-Amino-4-hydroxy-5,6,7,8-tetrahydropyrido[2,3-d]pyrimidin-6-yl)heptanoyl]-L-glutamic acid]
IC50 (CCRF-CEM): 0.034 µg/mL (≈ 0.0803 µM)

Nc1nc(O)c2c(n1)NCC(CCCC(=O)N[C@@H](CCC(=O)O)C(=O)O)C2 (stereo partly drawn) [N-[4-(2-amino-4-hydroxy-5,6,7,8-tetrahydropyrido[2,3-d]pyrimidin-6-yl)butyryl]-L-glutamic acid]
% Inhibition ([1]; 3.12 mg/kg, eight days): 0% | Toxicity ([1]; 3.12 mg/kg, eight days): 0/10 | % Inhibition ([1]; 6.25 mg/kg, eight days): 11% | Toxicity ([1]; 6.25 mg/kg, eight days): 0/10 | % Inhibition ([1]; 12.5 mg/kg, eight days): 62% | Toxicity ([1]; 12.5 mg/kg, eight days): 0/10 | % Inhibition ([1]; 25 mg/kg, eight days): 88% | Toxicity ([1]; 25 mg/kg, eight days): 0/10 | % Inhibition ([1]; 50 mg/kg, eight days): 98% | Toxicity ([1]; 50 mg/kg, eight days): 1/10

Nc1nc(O)c2c(n1)NCC(CCc1csc(C(=O)N[C@@H](CCC(=O)O)C(=O)O)c1)C2 (stereo partly drawn) [N-[4-(2-{2-amino-4-hydroxy-5,6,7,8-tetrahydropyrido[2,3-d]pyrimidin-6-yl}ethyl)thien-2-ylcarbonyl]-L-glutamic acid]
IC50 (CCRF-CEM): 0.0756 µg/mL (≈ 0.168 µM)

Nc1nc(O)c2c(n1)NCC(CCc1ccc(C(=O)N[C@@H](CCC(=O)O)C(=O)O)s1)C2 (stereo partly drawn) [N-[5-(2-{2-Amino-4-hydroxy-5,6,7,8-tetrahydropyrido[2,3-d]pyrimidin-6-yl}ethyl)thien-2-ylcarbonyl]-L-glutamic Acid]
% Inhibition (LX-1 Lung Xenography; 10 mg/kg): 98% | Toxicity (LX-1 Lung Xenography; 10 mg/kg): 0/8 | % Inhibition (LX-1 Lung Xenography; 20 mg/kg): 100% | Toxicity (LX-1 Lung Xenography; 20 mg/kg): 4/8 | % Inhibition (LX-1 Lung Xenography; 40 mg/kg): toxic | Toxicity (LX-1 Lung Xenography; 40 mg/kg): 8/8 | IC50 (CCRF-CEM): 0.0015 µg/mL (≈ 0.00334 µM) | % Inhibition ([2]; 20 mg/kg): 78% | Toxicity ([2]; 20 mg/kg): 0/10 | % Inhibition ([2]; 40 mg/kg): 83% | Toxicity ([2]; 40 mg/kg): 0/10 | % Inhibition ([3]; 2.5 mg/kg): 71% | Toxicity ([3]; 2.5 mg/kg): 0/10 | % Inhibition ([3]; 5 mg/kg): 90% | Toxicity ([3]; 5 mg/kg): 1/10 | % Inhibition ([3]; 10 mg/kg): 94% | Toxicity ([3]; 10 mg/kg): 0/10 | % Inhibition ([3]; 20 mg/kg): 100% | Toxicity ([3]; 20 mg/kg): 0/10 | % Inhibition ([3]; 40 mg/kg): 100% | Toxicity ([3]; 40 mg/kg): 0/10 | % Inhibition (CX-1 Colon Xenography; 5 mg/kg): 90% | Toxicity (CX-1 Colon Xenography; 5 mg/kg): 3/10 | % Inhibition (CX-1 Colon Xenography; 10 mg/kg): 94% | Toxicity (CX-1 Colon Xenography; 10 mg/kg): 6/10 | % Inhibition (CX-1 Colon Xenography; 20 mg/kg): 91% | Toxicity (CX-1 Colon Xenography; 20 mg/kg): 9/10 | % Inhibition (CX-1 Colon Xenography; 40 mg/kg): toxic | Toxicity (CX-1 Colon Xenography; 40 mg/kg): 10/10 | % Inhibition ([1]; 0.78 mg/kg, 10 days): 93% | Toxicity ([1]; 0.78 mg/kg, 10 days): 0/10 | % Inhibition ([1]; 1.56 mg/kg, 10 days): 100% | Toxicity ([1]; 1.56 mg/kg, 10 days): 0/10 | % Inhibition ([1]; 3.12 mg/kg, 10 days): 100% | Toxicity ([1]; 3.12 mg/kg, 10 days): 6/10 | % Inhibition ([1]; 6.25 mg/kg, 10 days): toxic | Toxicity ([1]; 6.25 mg/kg, 10 days): 10/10 | % Inhibition (B-16 Melanoma tumors; 50 mg/kg): 38% | Toxicity (B-16 Melanoma tumors; 50 mg/kg): 0/9 | % Inhibition (B-16 Melanoma tumors; 100 mg/kg): 73% | Toxicity (B-16 Melanoma tumors; 100 mg/kg): 3/10 | % Inhibition (B-16 Melanoma tumors; 200 mg/kg): 93% | Toxicity (B-16 Melanoma tumors; 200 mg/kg): 4/10 | % Inhibition (MX-1 Mammary Xenography; 5 mg/kg): 84% | Toxicity (MX-1 Mammary Xenography; 5 mg/kg): 3/10 | % Inhibition (MX-1 Mammary Xenography; 10 mg/kg): 96% | Toxicity (MX-1 Mammary Xenography; 10 mg/kg): 5/10 | % Inhibition (MX-1 Mammary Xenography; 20 mg/kg): toxic | Toxicity (MX-1 Mammary Xenography; 20 mg/kg): 9/9 | % Inhibition (MX-1 Mammary Xenography; 40 mg/kg): toxic | Toxicity (MX-1 Mammary Xenography; 40 mg/kg): 10/10

Nc1nc(O)c2c(n1)NCC(CCc1ccc(C(=O)N[C@@H](CCC(=O)O)C(=O)O)o1)C2 (stereo partly drawn) [N-[5-(2-{2-amino-4-hydroxy-5,6,7,8-tetrahydropyrido[2,3-d]pyrimidin-6-yl}ethyl)fur-2-ylcarbonyl]-L-glutamic acid]
IC50 (CCRF-CEM): 0.01 µg/mL (≈ 0.0231 µM) | % Inhibition ([1]; 0.625 mg/kg, days 1, 4, 7): 1% | Toxicity ([1]; 0.625 mg/kg, days 1, 4, 7): 0/10 | % Inhibition ([1]; 1.25 mg/kg, days 1, 4, 7): 29% | Toxicity ([1]; 1.25 mg/kg, days 1, 4, 7): 0/10 | % Inhibition ([1]; 2.5 mg/kg, days 1, 4, 7): 98% | Toxicity ([1]; 2.5 mg/kg, days 1, 4, 7): 0/10 | % Inhibition ([1]; 5 mg/kg, days 1, 4, 7): 97% | Toxicity ([1]; 5 mg/kg, days 1, 4, 7): 0/10 | % Inhibition ([1]; 10 mg/kg, days 1, 4, 7): 100% | Toxicity ([1]; 10 mg/kg, days 1, 4, 7): 0/10 | % Inhibition ([1]; 20 mg/kg, days 1, 4, 7): 100% | Toxicity ([1]; 20 mg/kg, days 1, 4, 7): 0/10 | % Inhibition ([1]; 25 mg/kg, eight days): 59% | Toxicity ([1]; 25 mg/kg, eight days): 0/10 | % Inhibition ([1]; 50 mg/kg, eight days): 69% | Toxicity ([1]; 50 mg/kg, eight days): 0/10 | % Inhibition ([1]; 100 mg/kg, eight days): 89% | Toxicity ([1]; 100 mg/kg, eight days): 0/10

Nc1nc(O)c2c(n1)NCC(CCC1CCC(C(=O)N[C@@H](CCC(=O)O)C(=O)O)CC1)C2 (stereo partly drawn) [N-{4-[2-(2-amino-4-hydroxy-5,6,7,8-tetrahydropyrido[2,3-d]pyrimidin-6-yl)ethyl]cyclohexylcarbonyl}-L-glutamic acid]
IC50 (CCRF-CEM): 0.007 µg/mL (≈ 0.0156 µM) | % Inhibition ([1]; 12.5 mg/kg, eight days): 18% | Toxicity ([1]; 12.5 mg/kg, eight days): 0/10 | % Inhibition ([1]; 25 mg/kg, eight days): 4% | Toxicity ([1]; 25 mg/kg, eight days): 0/10 | % Inhibition ([1]; 50 mg/kg, eight days): 5% | Toxicity ([1]; 50 mg/kg, eight days): 0/10 | % Inhibition ([1]; 100 mg/kg, eight days): 22% | Toxicity ([1]; 100 mg/kg, eight days): 0/9
